The results in this text go back to patent US10562909B2, “Fused quadracyclic compounds, compositions and uses thereof” (Tabomedex Biosciences, LLC, priority 2016, dated 2020).

Molecules are shown by their SMILES.

The IC50 is the concentration that inhibits the measured activity by half. Read a low IC50 as inhibition by little substance.

The experiment deals with MAPKAPK2 (Homo sapiens, UniProt P49137). The experiment is described as follows: MK2 Enzymatic Assay. The class given is biochemical. Particulars: 0.5 nM MAPKAPK2, 3 μM ATP, 2 μM Ser/Thr4 peptide, 23° C., values given as concentration bins. Put shortly: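 MAPKAPK2 (2× stock 1 nM) and peptide substrate (2× 4 μM) were preincubated 20 min, then started with ATP (2× stock 6 μM) for 120 min. After 120 min development, coumarin/fluorescein emission ratio gave percent phosphorylation against 0% and 100% phosphopeptide controls.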
Sequence of MAPKAPK2 (P49137 whole entry, species assumed): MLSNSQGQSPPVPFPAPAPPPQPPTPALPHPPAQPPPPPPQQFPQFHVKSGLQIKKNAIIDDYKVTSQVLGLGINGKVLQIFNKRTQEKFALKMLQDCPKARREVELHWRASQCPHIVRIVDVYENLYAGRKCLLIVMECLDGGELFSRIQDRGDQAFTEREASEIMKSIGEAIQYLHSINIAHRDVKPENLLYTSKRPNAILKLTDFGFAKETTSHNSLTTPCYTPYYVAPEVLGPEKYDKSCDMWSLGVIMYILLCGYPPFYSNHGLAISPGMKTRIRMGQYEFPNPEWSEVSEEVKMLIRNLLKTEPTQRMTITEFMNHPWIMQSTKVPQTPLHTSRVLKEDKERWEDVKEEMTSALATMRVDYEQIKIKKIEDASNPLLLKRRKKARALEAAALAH
`CN(C)C[C@@H]1CN(c2ccc3c(c2)Cn2cc(-c4ccc(F)cc4)cc2-c2nccn2-3)C[C@@H]1F` [Compound 475, 1-((3R,4R)-4-fluoro-1-(12-(4-fluorophenyl)-9H-benzo[e]imidazo[2,1-c]pyrrolo[1,2-a][1,4]diazepin-7-yl)pyrrolidin-3-yl)-N,N-dimethylmethanamine]: the concentration for half-maximal inhibition (IC50) is less than 50 nM.
The result for `CN(C)C[C@H]1CN(c2ccc3c(c2)Cn2cc(-c4ccc(F)cc4)cc2-c2ncnn2-3)C[C@H]1F` (relative stereo) [Compound 502, 1-(cis-4-fluoro-1-(12-(4-fluorophenyl)-9H-benzo[e]pyrrolo[1,2-a][1,2,4]triazolo[5,1-c][1,4]diazepin-7-yl)pyrrolidin-3-yl)-N,N-dimethylmethanamine] reads less than 50 nM; that for `OC1CN(c2ccc3c(c2)Cn2cc(-c4ccc(F)cc4)cc2-c2nccn2-3)CC1CN1CCC1` (single isomer, unassigned) [Compound 469], less than 50 nM; that for `CNC[C@@H]1CN(c2ccc3c(c2)Cn2cc(-c4ccc(F)cc4)cc2-c2nccn2-3)C[C@H]1O` [Compound 364, (3S,4R)-1-(12-(4-fluorophenyl)-9H-benzo[e]imidazo[2,1-c]pyrrolo[1,2-a][1,4]diazepin-7-yl)-4-((methylamino)methyl)pyrrolidin-3-ol], less than 50 nM.
To `CN(C)C1CCN(c2cc3c(cn2)-n2cnnc2-c2cc(-c4ccc(C#N)cc4)cn2C3)CC1` [Compound 321, 4-(7-(4-(dimethylamino)piperidin-1-yl)-9H-pyrido[3,4-e]pyrrolo[1,2-a][1,2,4]triazolo[3,4-c][1,4]diazepin-12-yl)benzonitrile] belongs 100 to 200 nM; to `CN(C)[C@@H]1CN(c2ccc3c(c2)Cn2cc(-c4ccc(F)cc4)cc2-c2nccn2-3)C[C@H]1O` [Compound 351, (3R,4R)-4-(dimethylamino)-1-(12-(4-fluorophenyl)-9H-benzo[e]imidazo[2,1-c]pyrrolo[1,2-a] [1,4]diazepin-7-yl)pyrrolidin-3-ol], less than 50 nM.
The result for `C[C@H](CO)NC[C@@H]1CCN(c2ccc3c(c2)Cn2cc(-c4ccc(C#N)cc4)cc2-c2nccn2-3)C1` [Compound 135, 4-(7-((S)-3-((((R)-1-hydroxypropan-2-yl)amino)methyl)pyrrolidin-1-yl)-9H-benzo[e]imidazo[2,1-c]pyrrolo[1,2-a][1,4]diazepin-12-yl)benzonitrile] reads less than 50 nM; that for `O[C@@H]1CN(c2ccc3c(c2)Cn2cc(-c4ccc(F)cc4)cc2-c2nccn2-3)C[C@H]1CN1CCCC1` [Compound 471, (3S,4R)-1-(12-(4-fluorophenyl)-9H-benzo[e]imidazo[2,1-c]pyrrolo[1,2-a][1,4]diazepin-7-yl)-4-(pyrrolidin-1-ylmethyl)pyrrolidin-3-ol], less than 50 nM; that for `CN(C)[C@@H]1CN(c2ccc3c(c2)Cn2cc(-c4ccc(C#N)cc4)cc2-c2nccn2-3)C[C@H]1O` [Compound 130, 4-(7-((3R,4R)-3-(dimethylamino)-4-hydroxypyrrolidin-1-yl)-9H-benzo[e]imidazo[2,1-c]pyrrolo[1,2-a][1,4]diazepin-12-yl)benzonitrile], less than 50 nM.
On to `CNCC1CCN(c2ccc3c(c2)Cn2cc(-c4ccc(F)cc4)cc2-c2nnnn2-3)C1` (centres unmarked) [Compound 388, 1-(1-(12-(4-fluorophenyl)-9H-benzo[e]pyrrolo[1,2-a]tetrazolo[5,1-c][1,4]diazepin-7-yl)pyrrolidin-3-yl)-N-methylmethanamine], for which the IC50 is less than 50 nM.
As to `CN(C)[C@@H]1CN(c2ccc3c(n2)Cn2cc(-c4ccc(C#N)cc4)cc2-c2nccn2-3)C[C@@H]1O` [Compound 303, 4-(7-((3R,4S)-3-(dimethylamino)-4-hydroxypyrrolidin-1-yl)-9H-imidazo[2,1-c]pyrido[3,2-e]pyrrolo[1,2-a][1,4]diazepin-12-yl)benzonitrile], the IC50 lay in the range of 50 to 100 nM.
To `CN1CC2(CCN(c3ccc4c(c3)Cn3c(cc(-c5ccc(C#N)cc5)c3Cl)-c3nncn3-4)C2)C1` [Compound 168, 4-(11-chloro-7-(2-methyl-2,6-diazaspiro[3.4]octan-6-yl)-9H-benzo[e]pyrrolo[1,2-a][1,2,4]triazolo[3,4-c][1,4]diazepin-12-yl)benzonitrile] belongs 100 to 200 nM; to `CN(C)C[C@@H]1CN(c2ccc3c(c2)Cn2cc(-c4ccc(F)cc4)cc2-c2nccn2-3)C[C@@H]1O` [Compound 350, (3R,4R)-4-((dimethylamino)methyl)-1-(12-(4-fluorophenyl)-9H-benzo[e]imidazo[2,1-c]pyrrolo[1,2-a][1,4]diazepin-7-yl)pyrrolidin-3-ol], less than 50 nM.
In turn, `CN(C)C[C@H]1CN(c2ccc3c(c2)Cn2cc(-c4ccc(C#N)cc4)cc2-c2nncn2-3)C[C@@H]1O` (racemic) [Compound 74, 4-(7-(trans-3-((dimethylamino)methyl)-4-hydroxypyrrolidin-1-yl)-9H-benzo[e]pyrrolo[1,2-a][1,2,4]triazolo[3,4-c][1,4]diazepin-12-yl)benzonitrile] displayed an IC50 of less than 50 nM.
The result for `CN1CC2(CCN(c3ccc4c(c3)Cn3cc(-c5ccc(C#N)cc5)cc3-c3nccn3-4)C2)C1` [Compound 125, 4-(7-(2-methyl-2,6-diazaspiro[3.4]octan-6-yl)-9H-benzo[e]imidazo[2,1-c]pyrrolo[1,2-a][1,4]diazepin-12-yl)benzonitrile] reads less than 50 nM; that for `CN(C)C1CCN(c2ccc3c(c2)Cn2cc(-c4ccc(F)cc4)cc2-c2ncnn2-3)CC1` [Compound 428, 1-(12-(4-fluorophenyl)-9H-benzo[e]pyrrolo[1,2-a][1,2,4]triazolo[5,1-c][1,4]diazepin-7-yl)-N,N-dimethylpiperidin-4-amine], 50 to 100 nM.
`N#Cc1ccc(-c2cc3n(c2)Cc2cc(N4CC[C@H]5NCC[C@@H]54)ccc2-n2ncnc2-3)cc1` (racemic) [Compound 249, 4-(7-(trans-hexahydropyrrolo[3,2-b]pyrrol-1(2H)-yl)-9H-benzo[e]pyrrolo[1,2-a][1,2,4]triazolo[5,1-c][1,4]diazepin-12-yl)benzonitrile] came in with an IC50 of less than 50 nM.
The result for `N#Cc1ccc(-c2cc3n(c2)Cc2cc(N4CC[C@@H](CN5CCC(O)CC5)C4)ccc2-n2cnnc2-3)cc1` [Compound 110, (S)-4-(7-(3-((4-hydroxypiperidin-1-yl)methyl)pyrrolidin-1-yl)-9H-benzo[e]pyrrolo[1,2-a] [1,2,4]triazolo[3,4-c][1,4]diazepin-12-yl)benzonitrile] reads less than 50 nM.
With `CN(C)[C@@H]1CCN(c2ccc3c(c2)Cn2cc(-c4ccc(F)cc4)cc2-c2nccn2-3)C1` [Compound 379, (R)-1-(12-(4-fluorophenyl)-9H-benzo[e]imidazo[2,1-c]pyrrolo[1,2-a][1,4]diazepin-7-yl)-N,N-dimethylpyrrolidin-3-amine], the IC50 was less than 50 nM.
The result for `CNCC1CN(c2ccc3c(c2)Cn2cc(-c4ccc(C#N)cc4)cc2-c2ncnn2-3)C1` [Compound 250, 4-(7-(3-((methylamino)methyl)azetidin-1-yl)-9H-benzo[e]pyrrolo[1,2-a][1,2,4]triazolo[5,1-c] [1,4]diazepin-12-yl)benzonitrile] reads 50 to 100 nM.
